From US12098144B2, “Piperazine indazole glucocorticoid receptor antagonists” (Corcept Therapeutics Incorporated, priority 2021, dated 2024)

Target: T1, glucocorticoid receptor (Homo sapiens, UniProt P04150)
T1 construct: endogenous in cells; ATCC cat
T1 sequence (P04150 1-777): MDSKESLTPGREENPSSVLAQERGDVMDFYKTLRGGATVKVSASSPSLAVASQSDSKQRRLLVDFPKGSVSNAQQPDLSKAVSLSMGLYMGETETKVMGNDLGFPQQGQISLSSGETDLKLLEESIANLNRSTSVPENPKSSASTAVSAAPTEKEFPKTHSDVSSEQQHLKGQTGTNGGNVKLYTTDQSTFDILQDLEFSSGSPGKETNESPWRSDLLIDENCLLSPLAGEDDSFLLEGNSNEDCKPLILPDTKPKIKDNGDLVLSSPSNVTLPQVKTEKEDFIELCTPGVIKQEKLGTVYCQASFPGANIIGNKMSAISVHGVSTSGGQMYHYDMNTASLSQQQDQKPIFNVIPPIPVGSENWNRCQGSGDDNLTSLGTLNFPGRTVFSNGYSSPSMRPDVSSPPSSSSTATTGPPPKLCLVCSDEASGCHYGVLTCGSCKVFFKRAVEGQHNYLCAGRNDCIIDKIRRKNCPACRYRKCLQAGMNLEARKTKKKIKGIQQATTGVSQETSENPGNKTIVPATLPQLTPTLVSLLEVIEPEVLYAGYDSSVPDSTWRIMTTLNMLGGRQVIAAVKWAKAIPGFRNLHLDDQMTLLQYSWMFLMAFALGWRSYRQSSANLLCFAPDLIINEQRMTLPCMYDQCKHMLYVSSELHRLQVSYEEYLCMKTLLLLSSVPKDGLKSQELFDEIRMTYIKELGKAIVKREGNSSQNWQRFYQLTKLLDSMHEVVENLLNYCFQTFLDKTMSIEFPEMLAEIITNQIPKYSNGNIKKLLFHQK
Assay: Hep G2 TAT Ki: inhibition of dexamethasone-induced TAT in HepG2 cells (96 well)
Type: cell-based
Conditions: challenge of 100 nM dexamethasone, IC50 converted to Ki by Cheng and Prusoff equation
Method in brief: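 Cells lysed 15 min at 4 °C; TAT enzyme reaction 2 h at 37 °C, stopped with KOH, 30 min further at 37 °C. Inhibition fitted to 4-parameter logistic.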

Ki [µM]	SMILES
0.043	Cc1cc2c(cnn2-c2ccc(F)cc2)cc1C1CN(S(=O)(=O)c2cnn(C)n2)CCN1CC(C)(C)CO (single isomer, unassigned) [Example 82, 3-(2-(1-(4-fluorophenyl)-6-methyl-1H-indazol-5-yl)-4-((2-methyl-2H-1,2,3-triazol-4-yl)sulfonyl)piperazin-1-yl)-2,2-dimethylpropan-1-ol]
0.16	Cc1cc2c(cnn2-c2ccc(F)cc2)cc1C1CN(S(=O)(=O)c2cnn(C)n2)CCN1CC1CCC1 (single isomer, unassigned) [Example 74, 5-(1-(cyclobutylmethyl)-4-((2-methyl-2H-1,2,3-triazol-4-yl)sulfonyl)piperazin-2-yl)-1-(4-fluorophenyl)-6-methyl-1H-indazole]
0.087	CC(=O)CN1CCN(S(=O)(=O)c2cnn(C)n2)CC1c1cc2cnn(-c3ccc(F)cc3)c2cc1C (single isomer, unassigned) [Example 125, 1-(2-(1-(4-fluorophenyl)-6-methyl-1H-indazol-5-yl)-4-((2-methyl-2H-1,2,3-triazol-4-yl)sulfonyl)piperazin-1-yl)propan-2-one]
0.031	Cc1cc2c(cnn2-c2ccc(F)cc2)cc1C1CN(S(=O)(=O)c2cnn(C3CCOCC3)c2)CCN1CC(C)C (single isomer, unassigned) [Example 54, 1-(4-fluorophenyl)-5-(1-isobutyl-4-((1-(tetrahydro-2H-pyran-4-yl)-1H-pyrazol-4-yl)sulfonyl)piperazin-2-yl)-6-methyl-1H-indazole]
0.035	COc1ccc(S(=O)(=O)N2CCN(CC(C)C)C(c3cc4cnn(-c5ccc(F)cc5)c4cc3C)C2)cn1 (single isomer, unassigned) [Example 103, 1-(4-fluorophenyl)-5-(1-isobutyl-4-((6-methoxypyridin-3-yl)sulfonyl)piperazin-2-yl)-6-methyl-1H-indazole]
0.06	CCCn1ncc(S(=O)(=O)N2CCN(CC(C)C)C(c3cc4cnn(-c5ccc(F)cc5)c4cc3C)C2)n1 (stereo not drawn) [Example 41, 1-(4-fluorophenyl)-5-(1-isobutyl-4-((2-propyl-2H-1,2,3-triazol-4-yl)sulfonyl)piperazin-2-yl)-6-methyl-1H-indazole]
0.047	Cc1cc2c(cnn2-c2ccc(F)cc2)cc1C1CN(S(=O)(=O)c2cnn(C)n2)CCN1C1CCCC1 (single isomer, unassigned) [Example 27, 5-(1-cyclopentyl-4-((2-methyl-2H-1,2,3-triazol-4-yl)sulfonyl)piperazin-2-yl)-1-(4-fluorophenyl)-6-methyl-1H-indazole]
0.086	Cc1cc2c(cnn2-c2ccc(F)cc2)cc1C1CN(S(=O)(=O)c2ncn(C)n2)CCN1CC(C)C (single isomer, unassigned) [Example 92, 1-(4-fluorophenyl)-5-(1-isobutyl-4-((1-methyl-1H-1,2,4-triazol-3-yl)sulfonyl)piperazin-2-yl)-6-methyl-1H-indazole]
0.074	Cc1cc2c(cnn2-c2ccc(F)cc2)cc1C1CN(S(C)(=O)=O)CCN1Cc1ccccc1 (single isomer, unassigned) [Example 29, 5-(1-benzyl-4-(methylsulfonyl)piperazin-2-yl)-1-(4-fluorophenyl)-6-methyl-1H-indazole]
0.028	Cc1cc2c(cnn2-c2ccc(F)cc2)cc1C1CN(S(=O)(=O)c2cnn(C)n2)CCN1CC1CC(F)C1 (single isomer, unassigned) [Example 156, 5-(1-((3-fluorocyclobutyl)methyl)-4-((2-methyl-2H-1,2,3-triazol-4-yl)sulfonyl)piperazin-2-yl)-1-(4-fluorophenyl)-6-methyl-1H-indazole]
0.0065	Cc1nc(S(=O)(=O)N2CCN(CCC(F)(F)F)C(c3cc4cnn(-c5ccc(F)cc5)c4cc3C)C2)cs1 (single isomer, unassigned) [Example 134, 4-((3-(1-(4-fluorophenyl)-6-methyl-1H-indazol-5-yl)-4-(3,3,3-trifluoropropyl)piperazin-1-yl)sulfonyl)-2-methylthiazole]
0.18	COC1CC(N2CCN(S(=O)(=O)c3cnn(C)n3)CC2c2cc3cnn(-c4ccc(F)cc4)c3cc2C)C1 (single isomer, unassigned) [Example 26, 1-(4-fluorophenyl)-5-(1-(3-methoxycyclobutyl)-4-((2-methyl-2H-1,2,3-triazol-4-yl)sulfonyl)piperazin-2-yl)-6-methyl-1H-indazole]
0.062	Cc1cc2c(cnn2-c2ccc(F)cc2)cc1[C@H]1CN(S(=O)(=O)c2cnn(C)n2)C[C@@H](C)N1CC(C)C (single isomer, unassigned) [Example 126]
0.073	CC(C)CN1CCN(S(=O)(=O)c2cnn(C)n2)CC1c1cc2cnn(-c3ccc(F)cc3)c2cc1Cl (stereo not drawn) [Example 24, 6-chloro-1-(4-fluorophenyl)-5-(1-isobutyl-4-((2-methyl-2H-1,2,3-triazol-4-yl)sulfonyl)piperazin-2-yl)-1H-indazole]
0.057	COCCn1cc(S(=O)(=O)N2CCN(CCC(F)(F)F)C(c3cc4cnn(-c5ccc(F)cc5)c4cc3C)C2)cn1 (single isomer, unassigned) [Example 136, 1-(4-fluorophenyl)-5-(4-((1-(2-methoxyethyl)-1H-pyrazol-4-yl)sulfonyl)-1-(3,3,3-trifluoropropyl)piperazin-2-yl)-6-methyl-1H-indazole]
0.024	Cc1cc2c(cnn2-c2ccc(F)cc2)cc1[C@@H]1CN(S(=O)(=O)c2cnn(C)n2)CCN1C[C@H]1C[C@@H](O)C1 (racemic) [Example 154, 3-((2-(1-(4-fluorophenyl)-6-methyl-1H-indazol-5-yl)-4-((2-methyl-2H-1,2,3-triazol-4-yl)sulfonyl)piperazin-1-yl)methyl)cyclobutan-1-ol]
0.038	CCn1ncc(S(=O)(=O)N2CCN(CC(C)C(F)(F)F)C(c3cc4cnn(-c5ccc(F)cc5)c4cc3C)C2)n1 (single isomer, unassigned) [Example 148, 5-(4-((2-ethyl-2H-1,2,3-triazol-4-yl)sulfonyl)-1-(3,3,3-trifluoro-2-methylpropyl)piperazin-2-yl)-1-(4-fluorophenyl)-6-methyl-1H-indazole]
0.036	Cc1cc2c(cnn2-c2ccc(F)cc2)cc1C1CN(S(=O)(=O)c2cnccc2C)CCN1CC(C)C (single isomer, unassigned) [Example 112, 1-(4-fluorophenyl)-5-(1-isobutyl-4-((4-methylpyridin-3-yl)sulfonyl)piperazin-2-yl)-6-methyl-1H-indazole]
0.044	Cc1cc2c(cnn2-c2ccc(F)cc2)cc1C1CN(S(=O)(=O)N(C)C2CC2)CCN1CC(C)C (single isomer, unassigned) [Example 62, N-cyclopropyl-3-(1-(4-fluorophenyl)-6-methyl-1H-indazol-5-yl)-4-isobutyl-N-methylpiperazine-1-sulfonamide]
0.031	CCCS(=O)(=O)N1CCN(CC(C)C)C(c2cc3cnn(-c4ccc(F)cc4)c3cc2C)C1 (single isomer, unassigned) [Example 49, 1-(4-fluorophenyl)-5-(1-isobutyl-4-(propylsulfonyl)piperazin-2-yl)-6-methyl-1H-indazole]
0.013	Cc1cc2c(cnn2-c2ccc(F)cc2)cc1C1CN(S(=O)(=O)c2cccnc2)CCN1CCC(F)(F)F (single isomer, unassigned) [Example 132, 1-(4-fluorophenyl)-6-methyl-5-(4-(pyridin-3-ylsulfonyl)-1-(3,3,3-trifluoropropyl)piperazin-2-yl)-1H-indazole]
